Data taken from US10662210B2, “Compositions and methods comprising osmium for the treatment of cancers” (Massachusetts Institute of Technology, priority 2014, dated 2020).

Assays:
HMLER CSC-depleted = experiment: Cytotoxicity against CSC-depleted breast cancer cells; format: cell-based
From the text: (§1) Cancer relapse is strongly linked to the existence of CSCs. […] Conventional chemotherapy and radiotherapy are often ineffective against CSCs. Although current therapies effectively reduce tumor mass by destroying the bulk of cancer cells, they are unable to remove CSCs, which persist and generate new tumors, often of a far more aggressive nature. Therefore, in order to improve clinical outcomes, treatments must have the ability to kill the entirety of cancer cells, including CSCs. The osmium compound, described in Formula (I), wherein X^1, X^2, and X^3 were chloride ligands and the bidentate ligand was a 1,10-phenanthroline ligand, was able to kill breast cancer cells (HMLER) enriched with CSCs, 2.3-fold better than CSC-depleted breast cancer cells. […] The selectivity of the osmium compound can be seen in Table 2 as well as FIGS. 17A-B and 18.
(§2) The colorimetric MTT assay was used to determine the toxicity of the osmium complexes and cisplatin. Cells (2×10^3) were seeded in each well of a 96-well plate. After incubating the cells overnight, various concentrations of test compound (0.3-100 μM) were added and incubated for 72 h (total volume 200 μL). The test compounds were prepared as 10 mM solutions in DMSO and diluted using media. The final concentration of DMSO in each well was 0.5% and this amount was present in the untreated control as well. Cisplatin was prepared as a 5 mM solution in PBS and diluted further using media. After 72 h, the medium was removed, 200 μL of a 0.4 mg/mL solution of MTT in DMEM or RPMI was added, and the plate was incubated for an additional 1-2 h. The DMEM/MTT or RPMI/MTT mixture was aspirated and 200 μL of DMSO was added to dissolve the resulting purple formazan crystals. The absorbance of the solution wells was read at 550 nm. Absorbance values were normalized to DMSO-containing control wells and plotted as concentration of test compound versus % cell viability. IC50 values were interpolated from the resulting dose dependent curves. The reported IC50 values are the average from at least three independent experiments, each of which consisted of six replicates per concentration level.

HMLER^tax CSC-enriched = experiment: Cytotoxicity against CSC-enriched breast cancer cells; format: cell-based; settings: for HMLER^tax selectivity: CSC-enriched vs CSC-depleted
From the text: as §1, §2

[1] = Water-octanol partition coefficient (log P), shake-flask method with GF-AAS; format: physicochemical; settings: room temperature, 50 μM
Method: Those of ordinary skill in the art would be knowledgeable of methods of determining the water-octanol partition coefficient of compounds. For example, the log P of a compound may be obtained using the shake-flask method and graphite furnace atomic absorption spectroscopy (GF-AAS). Briefly, in the shake-flask method, octanol is pre-saturated with water by overnight incubation with shaking of a biphasic mixture of the two at room temperature. A portion of 0.5 mL water containing 50 μM of the given compound is incubated with the pre-saturated octanol (0.5 mL) in a 1.5 mL tube. The tube is shaken at room temperature for 3 hours. The two phases are separated by centrifugation and the osmium content (concentration) in each phase is determined by GFAAS. The log P is then calculated using the formula below: log P=log 10[(concentration of osmium in the octanol layer)/(concentration of osmium in the water layer)].
The log P values were obtained using the shake-flask method and graphite furnace atomic absorption spectroscopy (GF-AAS). Octanol used in this experiment was pre-saturated with water by overnight incubation with shaking of a biphasic mixture of the two at room temperature. A portion of 0.5 mL water containing 50 μM of the given compound was incubated with the pre-saturated octanol (0.5 mL) in a 1.5 mL tube. The tube was shaken at room temperature for 3 h. The two phases were separated by centrifugation and the osmium content (concentration) in each phase was determined by GFAAS. All the experiments were carried out in triplicate. The log P was then calculated using the formula below: Log P=log 10[(conc. of osmium in the octanol layer)/(conc. of osmium in the water layer)].

A2780/CP70 (ovarian) = experiment: Cytotoxicity MTT assay; format: cell-based, human; settings: 72 h, cisplatin-resistant
Method: (§3) The anti-proliferative properties of 1-4 against a panel of human cancer cell lines were assessed by the MTT [3-(4,5-dimethylthiazol-2-yl)-2,5-diphenyltetrazolium bromide] assay. Cisplatin was included as a control. The IC50 values, concentrations required to induce 50% viability, were derived from dose-response curves and are summarized in Table 1.
(§4) A549 lung adenocarcinoma, HeLa cervical cancer, and MRC5 normal human fetal lung fibroblast cell lines were maintained in Dulbecco's Modified Eagle's Medium (DMEM-low glucose) supplemented with 10% fetal bovine serum and 1% penicillin/streptomycin. The cisplatin-sensitive A2780 ovarian cancer and the cisplatin-resistant A2780/CP70 ovarian cancer cell lines were cultured in RPMI (glutamine free) media supplemented with 10% fetal bovine serum and 1% penicillin/streptomycin. All cells were grown at 310 K in a humidified atmosphere containing 5% CO2.
as §2

MRC-5 (lung normal) = experiment: Cytotoxicity MTT assay; format: cell-based, human; settings: 72 h
Method: as §3, §4, §2

HeLa (cervical) = experiment: Cytotoxicity MTT assay; format: cell-based, human; settings: 72 h
Method: as §3, §4, §2

A2780 (ovarian) = experiment: Cytotoxicity MTT assay; format: cell-based, human; settings: MTT, 72 h
Method: as §3, §4, §2

A549 (lung) = experiment: Cytotoxicity MTT assay; format: cell-based, human; settings: 72 h
Method: as §3, §4, §2

A2780 cells = experiment: Cytotoxicity MTT assay with pathway and cell death inhibitors; format: cell-based, human; settings: salubrinal 10 μM
Method: This finding led to the investigation of the possibility that 4 may induce endoplasmic reticulum (ER) stress. Co-administration of 4 and salubrinal (10 μM), a known ER stress inhibitor, reduced the cytotoxicity of 4 in A2780 cells. […] To further validate the ER as the main target for 4, the expression of proteins related to the unfolded protein response (UPR) was monitored. […] ER membrane expansion is widely associated with ER stress. With this fact in mind the ER size of A2780 cells upon incubation with 4 were examined using fluorescence microscopy. Relative to untreated controls (FIG. 3B), cells exposed to 4 (10 μM) for 4 h had 25.1% larger ER coverage (FIG. 3C). The ER size relative to the whole cell of the untreated controls was about 30% and the ER size relative to the whole cell of the treated samples was about 55%.
Having established the intracellular targets of 2 and 4, the role of p53, a cell cycle and apoptosis regulator, in the cellular responses evoked was investigated. […] Therefore, p53 played a fundamental role in coordinating the cellular response to 2-induced DNA damage. […] (FIG. 13). […] To relate p53 to potency, cytotoxicity studies were conducted in the presence of p53 inhibitors pifithrin-α and pifithrin-μ. (both 10 μM). […] The IC50 values of compound 2 in the absence and presence of p53 inhibitor pifithrin-μ after 72 hours incubation was about 2 μM and about 30 μM, respectively.
as §2
For specific pathway and cell death inhibitor assays, inhibitors of p53 (pifithrin-α, 10 μM and pifithrin-μ, 10 μM), ER stress (salubrinal, 10 μM), necrosis (IM-54, 10 μM), and autophagocytosis (chloroquine, 10 μM) were added to cells and incubated for 0-1 h prior to treatment with the test compounds.

Compound | IC50 (HMLER CSC-depleted) [µM] | IC50 (HMLER^tax CSC-enriched) [µM] | HMLER^tax selectivity (HMLER^tax CSC-enriched) | log P (water-octanol coefficient) [1] | IC50 (A2780/CP70 (ovarian)) [µM] | IC50 (MRC-5 (lung normal)) [µM] | IC50 (HeLa (cervical)) [µM] | IC50 (A2780 (ovarian)) [µM] | IC50 (A549 (lung)) [µM] | effect of salubrinal on toxicity (A2780 cells)
CC(=O)[O][Pt]([NH2])([Cl])([Cl])([NH]C1CCCCC1)[O]C(C)=O [satraplatin] | 1.22 | 2.87 | 0.43 |  |  |  |  |  |  | 
N.N.O=C([O-])C1(C(=O)[O-])CCC1.[Pt+2] [carboplatin] | 17.8 | 18.2 | 0.98 |  |  |  |  |  |  | 
CC[C@@H](C(=O)[C@@H](C)[C@@H](O)[C@H](C)[C@@H]1O[C@@H]([C@@H](CC)C(=O)O)CC[C@@H]1C)[C@H]1O[C@]2(C=C[C@@H](O)[C@]3(CC[C@@](C)([C@H]4CC[C@](O)(CC)[C@H](C)O4)O3)O2)[C@H](C)C[C@@H]1C [salinomycin] | 0.49 | 0.058 | 8.45 |  |  |  |  |  |  | 
CC1=C[N]2c3c4c(ccc3=C1C)=C(C)C(C)=C[N]4[Os]2(#[N])([Cl])([Cl])[Cl] [Complex 3, OsN(3,4,7,8-tetramethyl-1,10-phenanthroline)Cl3] |  |  |  | 1.54 | 3.91 ± 0.26 | 17.2 ± 2.16 | 6.34 ± 0.52 | 7.97 ± 1.41 | 14.9 ± 1.63 | 
OsN(2,2′-bipyridine)Cl3 [Complex 1] |  |  |  | 0.71 | 3.94 ± 1.75 | 21.6 ± 4.85 | 9.24 ± 0.58 | 3.8 ± 0.21 | 6.11 ± 0.87 | 
O=C1[O][Pt]2([NH][C@@H]3CCCC[C@H]3[NH]2)[O]C1=O [oxaliplatin] | 15 | 26.9 | 0.55 |  |  |  |  |  |  | 
N.N.[Cl][Pt][Cl] [cisplatin, reference compound] | 1.95 | 2.06 | 0.95 |  | 10.3 ± 1.5 | 11.1 ± 1.33 | 2.83 ± 0.06 | 1.41 ± 0.37 | 3.59 ± 0.92 | limited effect
abamectin | 1.45 | 0.64 | 2.26 |  |  |  |  |  |  | 
